Results taken from ChEMBL document CHEMBL1201862, “PubChem BioAssay data set” (2004).
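Following 48 hours of exposure in 96-well plates, responses at five concentrations were used to interpolate endpoints linearly. The concentration for 50% growth inhibition is given as GI50.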 Activity calls are given as the source filed them. Cut-off read from the data, not from the text of the source: active = GI50 up to about 1.1 µM and inactive = higher.

Key:
Experiment in all cases: NCI anticancer screen, dose series, 48 h
786-0 = system: 786-0
A498 = system: A498
A549 = system: A549
ACHN = system: ACHN
BT-549 = system: BT-549
CAKI-1 = system: CAKI-1
CCRF-CEM = system: CCRF-CEM
COLO 205 = system: COLO 205
DU-145 = system: DU-145
EKVX = system: EKVX
HCT-116 = system: HCT-116
HCT-15 = system: HCT-15
HL-60 = system: HL-60
HOP-62 = system: HOP-62
HOP-92 = system: HOP-92
HT-29 = system: HT-29
Hs-578T = system: Hs-578T
IGROV-1 = system: IGROV-1
K562 = system: K562
KM12 = system: KM12
LOX IMVI = system: LOX IMVI
M14 = system: M14
MCF7 = system: MCF7
MDA-MB-231 = system: MDA-MB-231
MDA-MB-435 = system: MDA-MB-435
MOLT-4 = system: MOLT-4
Malme-3M = system: Malme-3M
NCI-H226 = system: NCI-H226
NCI-H23 = system: NCI-H23
NCI-H460 = system: NCI-H460
NCI-H522 = system: NCI-H522
NCI/ADR-RES = system: NCI/ADR-RES
OVCAR-3 = system: OVCAR-3
OVCAR-4 = system: OVCAR-4
OVCAR-5 = system: OVCAR-5
OVCAR-8 = system: OVCAR-8
PC-3 = system: PC-3
RPMI-8226 = system: RPMI-8226
RXF 393 = system: RXF 393
SF-268 = system: SF-268
SF-295 = system: SF-295
SF-539 = system: SF-539
SK-MEL-28 = system: SK-MEL-28
SK-MEL-2 = system: SK-MEL-2
SK-MEL-5 = system: SK-MEL-5
SK-OV-3 = system: SK-OV-3
SN12C = system: SN12C
SNB-19 = system: SNB-19
SNB-75 = system: SNB-75
SR = system: SR
SW-620 = system: SW-620
T47D = system: T47D
TK-10 = system: TK-10
U-251 = system: U-251
UACC-257 = system: UACC-257
UACC-62 = system: UACC-62
UO-31 = system: UO-31

Measured: GI50

CN(C)CCCN1c2ccc(O)cc2Sc2ccc(Cl)cc21 [7-HYDROXYCHLORPROMAZINE]
14.2 µM: HCT-15
active: CCRF-CEM 0.859 µM
inactive: 786-0 11.1 µM | A498 16.5 µM | A549 13.5 µM | ACHN 14.8 µM | BT-549 12.4 µM | CAKI-1 4.2 µM | COLO 205 20.8 µM | DU-145 17.9 µM | EKVX 18.4 µM | HCT-116 6.3 µM | HL-60 13.9 µM | HOP-62 15.1 µM | HOP-92 4.25 µM | HT-29 3.48 µM | Hs-578T 4.04 µM | IGROV-1 9.84 µM | K562 3.86 µM | KM12 10.5 µM | LOX IMVI 6.71 µM | M14 5.97 µM | MCF7 13.2 µM | MDA-MB-231 10.9 µM | MDA-MB-435 8.91 µM | MOLT-4 3.18 µM | Malme-3M 10.3 µM | NCI-H226 11.3 µM | NCI-H23 17.7 µM | NCI-H460 3.82 µM | NCI-H522 11.4 µM | NCI/ADR-RES 14.7 µM | OVCAR-3 11.8 µM | OVCAR-4 12.5 µM | OVCAR-5 15.1 µM | OVCAR-8 16 µM | PC-3 5.33 µM | RPMI-8226 4.5 µM | RXF 393 16.9 µM | SF-268 6.34 µM | SF-295 15.3 µM | SF-539 14.6 µM | SK-MEL-28 11.1 µM | SK-MEL-2 6.04 µM | SK-MEL-5 13.8 µM | SK-OV-3 17.4 µM | SN12C 10.3 µM | SNB-19 13.3 µM | SNB-75 8.63 µM | SR 2.96 µM | SW-620 17.5 µM | T47D 21 µM | TK-10 12.3 µM | U-251 9.86 µM | UACC-257 1.71 µM | UACC-62 9.91 µM | UO-31 9.53 µM
